From patent publication US20060189546A1, “Compounds for treating autoimmune and demyelinating diseases” (priority 2005, published 2006)

Columns and labels:
[1] = test system: Collagen Antibody Induced Arthritis; conditions: Lange et al., Annals of Rheumatoid Disease 64:599-605, 2005; cited from earlier work
T-lymphocyte cells = assay: Cell Proliferation, T-Cell + Con A ([3H]thymidine incorporation); assay type: cell-based, balb/c mice; conditions: Mus musculus, T-Cell + Con A
Method: T-lymphocyte cells isolated from thymus of balb/c mice weighing 17±1 g were used. Test compound and/or vehicle is incubated with the cells (4×10^6/ml) in the presence of 3 μg/mL Concanavalin A (Con A) in AIM-V medium pH 7.4 at 37° C. for 24 hours. [^3H]Thymidine (120 nM) was then added for an additional overnight incubation period. Thymidine incorporation was assessed by liquid scintillation counting.
(§1) Test compound-induced suppression of cell proliferation by 50 percent or more (≧50%) relative to vehicle control response indicates significant inhibitory activity.

IL-10 = assay: Mediator release, IL-10 (Con A-stimulated PBML, sandwich ELISA); assay type: cell-based; conditions: Homo sapiens, IL-10 release
Method: (§2) In this experiment, test compound and/or vehicle were preincubated with human peripheral blood mononuclear leukocyte (PBML, 1×10^6/ml) in RPMI buffer pH 7.4 for 2 hours. Concanavalin A (Con A, 20 μg/ml) was then added to stimulate the cells overnight in 5% CO2 at 37° C. IL-4 and IL-10 cytokine levels in the conditioned medium were then quantified using a sandwich ELISA kit. Compounds were screened at 10, 1, 0.1, 0.01 and 0.001 μM.

IL-4 = assay: Mediator release, IL-4 (Con A-stimulated PBML, sandwich ELISA); assay type: cell-based; conditions: Homo sapiens
Method: as §2

B-lymphocyte cells = assay: Cell Proliferation, B-Cell + LPS ([3H]thymidine incorporation); assay type: cell-based, balb/c mice; conditions: Mus musculus, B-Cell + LPS
Method: B-lymphocyte cells isolated from the spleen of balb/c mice weighing 17±1 g were used. Test compound and/or vehicle were incubated with the cells (1.5×10^6/ml) in the presence of 10 μg/ml lipopolysaccharide (LPS) in AIM-V medium pH 7.4 at 37° C. for 24 hours. [^3H]Thymidine (120 nM) was then added for an additional overnight incubation period. Thymidine incorporation was assessed by liquid scintillation counting.
as §1

[2] = test system: Experimental Autoimmune Encephalomyelitis (EAE); assay: Acute EAE, daily dosing for 15 days (Example 5); assay type: in vivo, guinea pigs; conditions: Symadex 6 mg/kg, mitoxantrone 0.35 mg/kg
Method: Accordingly, three randomized cohorts of guinea pigs with EAE induced by the method of Example 2, were treated, respectively, with 6 mg/kg of Symadex™ (full salt hydrate) and 0.35 mg/kg of mitoxantrone. Animals were treated daily, by intraperitoneal injection, for 15 days, starting on day 7 post immunization. Controls were treated with vehicle. We reasoned that 15 consecutive, 6 mg/kg doses of Symadex™ would represent a level of drug exposure that would be commensurate with the “20 mg/kg every 72 hours” regimen in Example 4 and consistent with a mid level exposure between the 20 mg/kg and the 40 mg/kg schedule given weekly, in Example 2. The mitoxantrone dose was selected to reflect a typical high dose given to rats or mice by daily dosing in the prior art, but allometrically scaled to the guinea pig.

[3] = 1 nM, read-out: % Growth Inhibition
[4] = 10 nM, read-out: % Growth Inhibition
[5] = 0.1 μM, read-out: % Growth Inhibition
[6] = 1 μM, read-out: % Growth Inhibition
[7] = 10 μM, read-out: % Growth Inhibition

For `CN(Cc1cnc2nc(N)nc(N)c2n1)c1ccc(C(=O)N[C@@H](CCC(=O)O)C(=O)O)cc1` [Methotrexate], the “benefit in antibody induced arthritis models” value [1] is given as “diminishing benefit”.
`O=C1c2c(O)ccc(O)c2C(=O)c2c(NCCNCCO)ccc(NCCNCCO)c21` [Mitoxantrone, reference compound] gave an IC50 (T-lymphocyte cells) of 32 nM, an inhibition at 0.001 µM (T-lymphocyte cells; [3]) of -1% and an inhibition at 0.01 µM (T-lymphocyte cells; [4]) of 19%. It also gave an inhibition at 0.1 µM (T-lymphocyte cells; [5]) of 80%, an inhibition at 1 µM (T-lymphocyte cells; [6]) of 103% and an inhibition at 10 µM (T-lymphocyte cells; [7]) of 103%. It also gave an IC50 (IL-10) of 759 nM, an inhibition at 0.001 µM (IL-10; [3]) of 2% and an inhibition at 0.01 µM (IL-10; [4]) of 1%. It also gave an inhibition at 0.1 µM (IL-10; [5]) of 5%, an inhibition at 1 µM (IL-10; [6]) of 60% and an inhibition at 10 µM (IL-10; [7]) of 102%. For the same molecule, the % inhibition of IL-4 release at 0.001 µM (IL-4; [3]) was 11%, the % inhibition of IL-4 release at 0.01 µM (IL-4; [4]) was 13% and the % inhibition of IL-4 release at 0.1 µM (IL-4; [5]) was 18%. It also gave a % inhibition of IL-4 release at 1 µM (IL-4; [6]) of -4%, a % inhibition of IL-4 release at 10 µM (IL-4; [7]) of 108% and an IC50 (IL-4; IL-4 release) of 2960 nM. The IC50 (B-lymphocyte cells) was 7.31 nM, the inhibition at 0.001 µM (B-lymphocyte cells; [3]) was 18% and the inhibition at 0.01 µM (B-lymphocyte cells; [4]) was 54%. For the same molecule, the inhibition at 0.1 µM (B-lymphocyte cells; [5]) was 93%, the inhibition at 1 µM (B-lymphocyte cells; [6]) was 102% and the inhibition at 10 µM (B-lymphocyte cells; [7]) was 102%. The “clinical score (neurological impairment)” value ([2]; daily i.p. for 15 days from day 7) was “the initial rise in neurological impairment is arrested”, the weight gain ([2]; daily i.p. for 15 days) was “impairs weight gain” and the “reduction of meningeal inflammation (M) pathology score” value ([2]; necropsy after 15 daily doses) was “statistically significant reduction in meningeal inflammation”. For the same molecule, the “reduction of perivascular cuffing (P), myelitis (E) and demyelination (D) pathology scores” value ([2]; necropsy after 15 daily doses) was “statistically significant differences (p value<0.05) from control”.
